Laboratory results as given in patent US12643859B2, “Pyridyl oxycarboxylic acid oxime derivative and preparation method therefor, weeding composition and application thereof” (Qingdao Kingagroot Chemical Compound Co., Ltd., priority 2018, dated 2026).

System: Monocotyledonous and dicotyledonous weed seeds and main crop seeds
Assay: Post-emergence test experiment (Table 3, 1000 g a.i./ha)
Format: in vivo
Conditions: 3 weeks in greenhouse, fresh weight inhibition
Experimental: The above described growth inhibition rate is fresh weight inhibition rate.
Post-emergence test experiment: Monocotyledonous and dicotyledonous weed seeds and main crop seeds (i. e. wheat, corn, rice, soybean, cotton, oilseed, millet and sorghum.) were put into a plastic pot loaded with soil. Then covered with 0.5-2 cm soil, the seeds were allowed to grow in good greenhouse environment. The test plants were treated at 2-3 leaf stage 2 weeks after sowing. The test compounds of the invention were dissolved with acetone respectively, then added with tween-80, and using 1.5 liters per hectare of an emulsible concentrate of methyl oleate as a synergist, and diluted by certain amount of water to certain concentration. The solution was sprayed to the plants with a sprayer. Then the plants were cultured for 3 weeks in the greenhouse, and the experiment result of weed controlling effect was listed in tables 3-4.

SMILES	Activity level (growth inhibition rate) Digitaria sanguinalis	Activity level (growth inhibition rate) Echinochloa crusgalli	Activity level (growth inhibition rate) Galium spurium	Activity level (growth inhibition rate) Leptochloa chinensis	Activity level (growth inhibition rate) Monochoria Vaginalis	Activity level (growth inhibition rate) Murdannia triquetra	Activity level (growth inhibition rate) Setaria viridis
C=COC(=O)C(=NOC(=O)C(C)Oc1nc(F)c(Cl)c(N)c1Cl)C(=O)N(C)c1ccccc1 (centres unmarked) [Compound 106]	5 (Level 5: the growth inhibition rate is greater than 85%)	5 (Level 5: the growth inhibition rate is greater than 85%)	5 (Level 5: the growth inhibition rate is greater than 85%)	5 (Level 5: the growth inhibition rate is greater than 85%)	5 (Level 5: the growth inhibition rate is greater than 85%)	5 (Level 5: the growth inhibition rate is greater than 85%)	5 (Level 5: the growth inhibition rate is greater than 85%)
CC(Oc1nc(F)c(Cl)c(N)c1Cl)C(=O)ON=C(c1ccccc1)c1ccc(C2CC2)cc1 (centres unmarked) [Compound 80]	5 (Level 5: the growth inhibition rate is greater than 85%)	5 (Level 5: the growth inhibition rate is greater than 85%)	5 (Level 5: the growth inhibition rate is greater than 85%)	5 (Level 5: the growth inhibition rate is greater than 85%)	5 (Level 5: the growth inhibition rate is greater than 85%)	5 (Level 5: the growth inhibition rate is greater than 85%)	5 (Level 5: the growth inhibition rate is greater than 85%)
CC(Oc1nc(F)c(Cl)c(N)c1Cl)C(=O)ON=C(Cc1ccccc1)c1ccccc1N (centres unmarked) [Compound 93]	5 (Level 5: the growth inhibition rate is greater than 85%)	5 (Level 5: the growth inhibition rate is greater than 85%)	5 (Level 5: the growth inhibition rate is greater than 85%)	5 (Level 5: the growth inhibition rate is greater than 85%)	5 (Level 5: the growth inhibition rate is greater than 85%)	5 (Level 5: the growth inhibition rate is greater than 85%)	5 (Level 5: the growth inhibition rate is greater than 85%)
CC(CCCl)=NOC(=O)C(C)Oc1nc(C)c(C)c(N)c1C (centres unmarked) [Compound 19]	5 (Level 5: the growth inhibition rate is greater than 85%)	5 (Level 5: the growth inhibition rate is greater than 85%)	5 (Level 5: the growth inhibition rate is greater than 85%)	5 (Level 5: the growth inhibition rate is greater than 85%)	5 (Level 5: the growth inhibition rate is greater than 85%)	5 (Level 5: the growth inhibition rate is greater than 85%)	5 (Level 5: the growth inhibition rate is greater than 85%)
CSC(=NOC(=O)C(C)Oc1nc(F)c(Cl)c(N)c1Cl)c1ccc(SC)cc1 (centres unmarked) [Compound 89]	5 (Level 5: the growth inhibition rate is greater than 85%)	5 (Level 5: the growth inhibition rate is greater than 85%)	5 (Level 5: the growth inhibition rate is greater than 85%)	5 (Level 5: the growth inhibition rate is greater than 85%)	5 (Level 5: the growth inhibition rate is greater than 85%)	5 (Level 5: the growth inhibition rate is greater than 85%)	5 (Level 5: the growth inhibition rate is greater than 85%)
CC(=NOC(=O)C(C)Oc1nc(F)c(Cl)c(N)c1Cl)c1ccc([N+](=O)[O-])cc1 (centres unmarked) [Compound 71]	5 (Level 5: the growth inhibition rate is greater than 85%)	5 (Level 5: the growth inhibition rate is greater than 85%)	5 (Level 5: the growth inhibition rate is greater than 85%)	5 (Level 5: the growth inhibition rate is greater than 85%)	5 (Level 5: the growth inhibition rate is greater than 85%)	5 (Level 5: the growth inhibition rate is greater than 85%)	5 (Level 5: the growth inhibition rate is greater than 85%)
CC(Oc1nc(F)c(Cl)c(N)c1Cl)C(=O)ON=C(c1ccc(Cl)cc1)c1cccc(F)c1 (centres unmarked) [Compound 82]	5 (Level 5: the growth inhibition rate is greater than 85%)	5 (Level 5: the growth inhibition rate is greater than 85%)	5 (Level 5: the growth inhibition rate is greater than 85%)	5 (Level 5: the growth inhibition rate is greater than 85%)	5 (Level 5: the growth inhibition rate is greater than 85%)	5 (Level 5: the growth inhibition rate is greater than 85%)	5 (Level 5: the growth inhibition rate is greater than 85%)
CC(Oc1nc(F)c(Cl)c(N)c1Cl)C(=O)ON=Cc1cccc([N+](=O)[O-])c1 (centres unmarked) [Compound 73]	5 (Level 5: the growth inhibition rate is greater than 85%)	5 (Level 5: the growth inhibition rate is greater than 85%)	5 (Level 5: the growth inhibition rate is greater than 85%)	5 (Level 5: the growth inhibition rate is greater than 85%)	5 (Level 5: the growth inhibition rate is greater than 85%)	5 (Level 5: the growth inhibition rate is greater than 85%)	5 (Level 5: the growth inhibition rate is greater than 85%)
CCCC(C)=NOC(=O)C(Oc1nc(F)c(Cl)c(N)c1Cl)C1CC1 (centres unmarked) [Compound 28]	–	–	5 (Level 5: the growth inhibition rate is greater than 85%)	–	5 (Level 5: the growth inhibition rate is greater than 85%)	5 (Level 5: the growth inhibition rate is greater than 85%)	–
CSC(=O)C(=NOC(=O)C(C)Oc1nc(F)c(Cl)c(N)c1Cl)C(=O)NCc1ccc(Cl)cc1 (centres unmarked) [Compound 102]	5 (Level 5: the growth inhibition rate is greater than 85%)	5 (Level 5: the growth inhibition rate is greater than 85%)	5 (Level 5: the growth inhibition rate is greater than 85%)	5 (Level 5: the growth inhibition rate is greater than 85%)	5 (Level 5: the growth inhibition rate is greater than 85%)	5 (Level 5: the growth inhibition rate is greater than 85%)	5 (Level 5: the growth inhibition rate is greater than 85%)
CC(Oc1nc(F)c(Cl)c(N)c1Cl)C(=O)ON=C1CCCCC1 (centres unmarked) [Compound 116]	5 (Level 5: the growth inhibition rate is greater than 85%)	5 (Level 5: the growth inhibition rate is greater than 85%)	5 (Level 5: the growth inhibition rate is greater than 85%)	5 (Level 5: the growth inhibition rate is greater than 85%)	5 (Level 5: the growth inhibition rate is greater than 85%)	5 (Level 5: the growth inhibition rate is greater than 85%)	5 (Level 5: the growth inhibition rate is greater than 85%)
CC(Oc1nc(F)c(Cl)c(N)c1Cl)C(=O)ON=C(c1ccccc1)c1cccc(Cl)c1 (centres unmarked) [Compound 79]	5 (Level 5: the growth inhibition rate is greater than 85%)	5 (Level 5: the growth inhibition rate is greater than 85%)	5 (Level 5: the growth inhibition rate is greater than 85%)	5 (Level 5: the growth inhibition rate is greater than 85%)	5 (Level 5: the growth inhibition rate is greater than 85%)	5 (Level 5: the growth inhibition rate is greater than 85%)	5 (Level 5: the growth inhibition rate is greater than 85%)
